For 62 compounds, melting point results are on record in a melting point compilation (Tetko et al.; mined from patent text by program, amines drawn as free bases though some values may be those of a salt).

Each structure is given as a SMILES string.

One may read the melting point as the temperature of the solid-liquid transition. Take `CCOc1cc(N=Nc2ccc(OC)cc2)c(O)c(C(C)(C)C)c1`: the melting point was in the range of 105 to 108 °C.
For `O=C(O)c1cn(C2CC2)c2c(F)c(N3CCC(CNCCF)C3)c(F)cc2c1=O` (configuration not stated) the value was 134 to 138 °C.
The figure for `CCCCCCCCCCCCCCCCNc1ccc(C=O)cc1` is 66.5 to 67.5 °C; for `CC(C)n1nc(-c2nc(Br)c(N=S(C)C)nc2-c2ccccc2)ccc1=O` it is 220 to 224 °C.
For `CN1CN(C(=O)c2c(F)cccc2F)C(=O)N(c2ccc(S(=O)(=O)C(F)F)cc2F)C1` the value was 203 to 205 °C; for `C=CCOC1CC(C)(C)N(c2nc(Cl)nc(Cl)n2)C(C)(C)C1`, 53 to 55 °C; for `COc1cc(Br)c2oc(-c3ccc(OC)c(F)c3)nc2c1`, 175 to 177 °C.
`Cc1c(Br)c2c(c(C)c1NC(=O)OC(C)(C)C)C(N(C)C)C(C)(C)O2` (configuration not stated) had a melting point of 111 to 112 °C.
`O=C(c1ccc(I)cc1)c1ccc(-c2ccc(Cl)cc2)cc1` showed a melting point of 218 °C.
`O=C1CCC2(c3c[nH]cn3)Cc3ccccc3C12` (configuration not stated) showed a melting point of 234 to 236 °C.
For `O=C(Nc1ccc2cc(CN3CCCC3)cnc2c1F)c1ccc(-c2ccccc2)cc1F` the value was 136 to 137 °C; for `CN1CCNC(c2ccccc2)c2cc(Cl)ccc21` (configuration not stated), 66 to 68 °C.
For `CCN(CC)c1ccc(-c2ccc3c(c2)C=C(C(=O)Nc2ccc(CN(C)C4CCOCC4)cc2)CCN3C)cc1` the value was 178 to 180 °C.
For `N#CC(Cc1ccccc1)C(=O)O` (configuration not stated) the value was 97 °C; for `CCCCCC(=O)Nc1ccc2ccn(CCCO)c2c1`, 87 to 88 °C; for `CC(=O)OCCCCN(C)CCN(C)C(=O)[C@@H]1CCCN1S(=O)(=O)c1ccc(Cl)c(COc2cccc3c(-n4ccnc4)cc(C)nc23)c1Cl`, 76 °C.
For the compound `CN1CCc2c(-c3ccc([N+](=O)[O-])cc3)cc3c(c2C1)NC(=O)C3=O`, the melting point was more than 300 °C.
The figure for `COC(=O)C1(C(C)C)Oc2c(OC)cccc2C1=O` (configuration not stated) is 87 to 88 °C; for `CN(C)C=C1CCc2ccn(C)c2C1=O` it is 49 to 51 °C.
With `CN(C)CCSc1nc2ccccc2n1CCc1ccccc1`, the melting point fell in the range of 38 to 39 °C.
The figure for `COc1cc(C)nc(-c2cccc(-c3ccccc3C)n2)n1` is 103 °C; for `CC(=O)NC[C@H]1CN(c2ccc(N3CCC4(CC3)NCCO4)c(F)c2)C(=O)O1` it is 138 to 140 °C.
The figure for `COc1cc2c(cc1OC)C(NCC(=O)O)CC2` (configuration not stated) is 213 to 216 °C; for `Cc1cccc(NC(=O)NC2N=C(c3ccccc3F)c3ccccc3N(Cc3ccsc3)C2=O)c1` (racemic) it is 221 to 223 °C.
Consider `COc1cn(-c2ccc(-n3cc(F)c(F)c3)cc2OCC(F)(F)F)nc(-c2ccnn2-c2ccccc2)c1=O`, for which the melting point lay within 220 to 222 °C.
The figure for `CCn1nc(C)c2c1C(=O)Nc1ccccc1N2C(=O)CCl` is 208 to 210 °C.
The figure for `OCC1OC(c2ccc(Cl)c(Cc3cc4ccccc4s3)c2)C(O)C(O)C1O` (configuration not stated) is 153 to 154 °C.
The figure for `[O-][N+]1=C(c2ccccc2)c2cc(Cl)ccc2CCC1` is 120 to 125 °C.
`CC(C)(C)c1ccc(-c2cc(N3CCOCC3)cc(=O)o2)cc1`: the melting point is 230 to 232 °C.
The figure for `Nc1c(F)c(N2CC(O)C2)c(F)c2c1c(=O)c(C(=O)O)cn2C1CC1` is 271 to 275 °C.
For `O=C(O)c1cc(Sc2nc3cc(Cl)ccc3[nH]2)c2[nH]c(=O)[nH]c2c1` the value was 326 to 330 °C.
For `CC(=O)Oc1c(C)cc(Oc2ccc3nc(CO)n(C)c3n2)c(C)c1C` the value was 179 to 180 °C.
On to `Cc1cc(-c2cc(C(F)(F)F)n3nccc3n2)ccc1Cl`, for which the melting point worked out at 114 °C.
Take `Cc1cccc(-c2ccc3c(ccn3Cc3ccc(C(C)(C)C)cc3)c2)c1`: the melting point fell in the range of 94 to 95 °C.
For `CCOP(=O)(CC(Nc1cccnc1)c1cc(OC)c(OC)c(OC)c1)OCC` (configuration not stated) the value was 104 to 106 °C; for `Cc1n[nH]c2ccc(C3C(C#N)=C(C(F)F)NC(C(F)F)=C3C#N)cc12`, 289 °C; for `c1ccc(-c2ncc(-c3cnc(C4CCCNC4)[nH]3)cn2)cc1` (configuration not stated), 140 °C.
For `CC1c2ccc(F)n2-c2cc(F)c(F)cc2N1S(=O)(=O)c1ccc(O)cc1` (configuration not stated) the value was 184 to 189 °C.
Regarding `Nc1n[nH]c2ccc(Br)cc12`, the melting point lay within 165 to 175 °C.
The figure for `C[C@H](c1ccccc1)N(CC(=O)OC(C)(C)C)S(=O)(=O)c1ccc2c(Cl)cnc(NC(=N)N)c2c1` is 106 to 111 °C; for `CCOC(=O)C(=CNc1nccs1)C(=O)c1ccc(Cl)nc1Cl` it is 119 to 122 °C.
For `NN1CCN(CCc2c[nH]c3ccccc23)CC1`, the melting point lay in the range of 115 to 117 °C.
The figure for `CC(C)(C)OC(=O)OCC(COC(=O)OC(C)(C)C)OCn1cnc2c(=O)[nH]c(N)nc21` is 192 to 193 °C; for `Cc1ccc(Sc2cncc3sccc23)cc1` it is 94 to 95 °C; for `O=C1c2ccccc2C(=O)N1C(=O)c1cc(Oc2ccc(C(F)(F)F)cc2Cl)ccc1[N+](=O)[O-]` it is 160 °C.
`Brc1ccc(C=Cc2csc3ccccc23)s1` showed a melting point of 71.5 to 73 °C.
The figure for `CCCc1nc(C(C)O)c(C(=O)O)n1Cc1ccc(-c2ccccc2-c2nnn[nH]2)cc1` (configuration not stated) is 198 to 201 °C; for `CCOCc1nc2c(N)nc3cc(OCCCN4CCCC4=O)ccc3c2n1CCCCNC(=O)OC(C)(C)C` it is 134 to 136 °C; for `c1ccc2c(c1)CC1(CCN(CCc3c[nH]c4ccccc34)CC1)O2` it is 167 to 169 °C.
As to `Nc1cc(/C=C/c2cc(/C=C/c3ccc4cc[nH]c4c3)[nH]n2)ccc1O`, the melting point was in the range of 123 to 126 °C.
For `Cc1cc(C)cc(NCc2ccc3nc(NC4CCN(CCO)CC4)n(Cc4nc(C)ccc4O)c3c2)c1` the value was 144 °C; for `CCOC(=O)c1cnc2n(c1=O)C(C)CCC2N(C)c1ccccc1` (configuration not stated), 175 to 178 °C; for `CN1CCCC1=C(C#N)c1ccc(N)cc1`, 116 to 118 °C.
In the case of `Cc1cc(-c2cnn3c(C(F)F)cc(-c4ccc(C(F)(F)F)c(C)c4)nc23)ccn1`, the melting point is 221 °C.
Compound `CCOC(=O)c1ccc(N2CCN(Cc3cc(C)c4c(c3)NC(=O)C(C)O4)CC2)nc1` (configuration not stated) returned a melting point of 206 °C.
The figure for `c1cnc2c(c1)NCCCC2` is 70 to 71 °C; for `COC(=O)c1cccc2c1c(S(=O)(=O)NC(C)(C)C)nn2C` it is 189 to 190 °C; for `CC(=O)NCC1CN(c2ccc(N3CCN(c4ncc([N+](=O)[O-])s4)CC3)c(F)c2)C(=O)O1` (configuration not stated) it is 202 to 203 °C.
The compound `COc1ccc(-c2nc(COc3cccc(N)c3)c(C)o2)cc1` displayed a melting point of 132 to 134 °C.
Regarding `CN1C(=O)CC[C@]2(C)c3ccc(Sc4nc(-c5ccccc5)nc5ccccc45)cc3CC[C@@H]12`, the melting point was 185 to 193 °C.
`COC(CNC(=O)CN1C(=O)C(C)=C(C)C1=O)OC` yielded a melting point of 99.4 to 99.9 °C.
Turning to `O=C(Oc1ccc(OC(=O)c2cc(O)c(O)c(O)c2)c(-c2ccccc2)c1)c1cc(O)c(O)c(O)c1`, the melting point is 114 to 116 °C.
